Measurements published in patent EP4806898A1, “HETEROARYL DERIVATIVE COMPOUND AND USE THEREOF” (Voronoi Inc., priority 2023, dated 2025).
Like-named read-outs stand apart in the source and are kept apart here.

Tests used:
UWB1.289 cells = assay: Cell proliferation inhibitory activity in BRCA1/2-mutant or HRD-positive cells (Cell Titer-Glo); type: cell-based; settings: UWB1.289 cells, 144 hours after compound treatment, Cell Titer-Glo, 1.5 nM to 10 µM, read-out: GI50 UWB1.289 BRCA1 mut
Experimental: <Experimental Example 2> Evaluation of Cell Proliferation Inhibitory Activity in BRCA1/2-Mutant or HRD-Positive Cells
To evaluate the inhibitory activity of the compound according to the present invention on the proliferation of BRCA1/2 mutants or homologous recombination deficient (HRD) positive cell lines, the following experiments were performed. UWB1.289 cells were cultured in medium (50% MEBM + 50% RPMI1640), and 1,000 cells were seeded in a well plate (black clear bottom 96-well plate, Corning) 16 to 24 hours prior to compound treatment. The compounds were diluted in dimethyl sulfoxide (3-fold serial dilution starting at 10 µM, for a total of 10 concentrations) and injected at 1 µl per well, resulting a final concentration range of […] to 10 µM. Measurements of live cells were performed by a reaction in a 37 °C and CO2 incubator for 144 hours after compound treatment. The cells were incubated for 10 minutes in an incubator using Cell Titer-Glo luminescent cell-viability reagent (Promega), and luminescence intensity thereof was measured using a reader (SynergyNeo2, Biotek). GI50 values were calculated using the GraphPad Prism version 8.4.3 (GraphPad software Inc., San Diego) program.

recombinant USP1 protein = molecular target: T1, recombinant USP1 protein (Homo sapiens, UniProt O94782, DEL125-138/DEL229-408/DEL608-737); assay: Binding affinity to recombinant USP1 protein by differential scanning fluorimetry; settings: compound 100 µM, 0.03 mg/mL USP1 (Δ1-66, Δ125-138, Δ229-408, Δ608-737), Tm with compound minus Tm with DMSO; for ΔTm at 100 µM: read-out: ΔTm (°C)
T1 sequence (O94782 with tags, fused parts or gaps DEL125-138/DEL229-408/DEL608-737): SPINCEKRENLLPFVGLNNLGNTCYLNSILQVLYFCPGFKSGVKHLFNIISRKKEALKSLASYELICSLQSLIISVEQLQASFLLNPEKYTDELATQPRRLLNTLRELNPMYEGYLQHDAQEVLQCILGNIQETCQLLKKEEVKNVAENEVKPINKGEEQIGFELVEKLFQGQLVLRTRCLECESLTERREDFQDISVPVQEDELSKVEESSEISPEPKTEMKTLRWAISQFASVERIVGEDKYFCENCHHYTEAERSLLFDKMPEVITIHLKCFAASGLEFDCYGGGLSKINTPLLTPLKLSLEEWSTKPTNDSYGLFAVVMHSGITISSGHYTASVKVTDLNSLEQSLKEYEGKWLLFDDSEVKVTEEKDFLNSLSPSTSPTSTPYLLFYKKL
Experimental: <Experimental Example 1> Confirmation and evaluation of the binding affinity to recombinant USP1 protein
To evaluate the binding affinity of the compounds of the present invention to the USP1 protein, the following experiment was performed using differential scanning fluorimetry.
Recombinant 0.03 mg/mL USP1 (Δ1-66, Δ125-138, Δ229-408, Δ608-737) protein, dye reagent, and buffer solution (50 mM Tris-HCl pH 8.0, 150 mM NaCl, 2% glycerol, 1 mM DTT) were mixed and 19 µL of the mixture was dispensed into a well plate (MicroAmp Fast 96-Well Reaction plate, 0.1 mL). Each compound was injected at a final concentration of 100 µM in an amount of 1 µL, and the plate containing a total of 20 µL was sealed with MicroAmp Optical Adhesive Film. The melting temperature (Tm) of the protein in each well was measured using a real-time PCR (RT-PCR) device. The difference between the Tm of the sample containing the compound and the Tm containing DMSO is referred to as delta Tm (ΔTm), where a larger ΔTm value indicates stronger binding affinity. The degree of temperature at which the protein is modified in the presence of the compound compared to DMSO was calculated according to Equation 1 below: [formula]

Compound | GI50 (UWB1.289 cells; UWB1289) [nM] | ΔTm at 100 µM (recombinant USP1 protein) [°C] | also measured
2-(4-cyclopropyl-6-ethoxypyrimidi n-5-yl)-7-(4-(1-isopropyl-4-(trifluorometh yl)-1H-imidazol-2-yl)benzyl)-N-methyl-7H-pyrrolo[2,3-d]pyrimidine-6-carboxamide [Example 63] | – | – | GI50 (UWB1.289 cells): < 100 nM; ΔTm (°C) (recombinant USP1 protein): A (ΔTm (°C) > 5 °C)
2-(4-cyclopropyl-6-methoxypyrimid in-5-yl)-N-((3,3-difluorocyclob utyl)methyl) - 7-(4-(1-isopropyl-4-(trifluorometh yl)-1H-imidazol-2-yl)benzyl)-7H-pyrrolo[2,3-d]pyrimidine-6-carboxamide [Example 84] | – | – | GI50 (UWB1.289 cells): 100 to 500 nM
CNC(=O)c1cc2cnc(-c3c(OC)ncnc3C3CC3)nc2n1Cc1ccc(-c2nc(C(F)(F)F)cn2C(C)C)cc1 [Example 1, 2-(4-cyclopropyl-6-methoxypyrimidin-5-yl)-7-(4-(1-isopropyl-4-(trifluoromethyl)-1H-imidazol-2-yl)benzyl)-N-methyl-7H-pyrrolo[2,3-d]pyrimidine-6-carboxamide] | < 100 | > 5 | –
CNC(=O)c1cc2cnc(-c3ccccc3C(C)C)nc2n1Cc1ccc(-c2nc(C(F)(F)F)cn2C(C)C)cc1 [Example 2, 7-(4-(1-isopropyl-4-(trifluoromethyl)-1H-imidazol-2-yl)benzyl)-2-(2-isopropylphenyl)-N-methyl-7H-pyrrolo[2,3-d]pyrimidine-6-carboxamide] | < 100 | > 5 | –
[2H]C([2H])([2H])Oc1ncnc(C2CC2)c1-c1ncc2cc(C(=O)NC)n(Cc3ccc(-c4nc(C(F)(F)F)cn4C(C)C)cc3)c2n1 [Example 3, 2-(4-cyclopropyl-6-(methoxy-d3)pyrimidin-5-yl)-7-(4-(1-isopropyl-4-(trifluoromethyl)-1H-imidazol-2-yl)benzyl)-N-methyl-7H-pyrrolo[2,3-d]pyrimidine-6-carboxamide] | < 100 | > 5 | –
CCNC(=O)c1cc2cnc(-c3c(OC)ncnc3C3CC3)nc2n1Cc1ccc(-c2nc(C(F)(F)F)cn2C(C)C)cc1 [Example 4, 2-(4-cyclopropyl-6-methoxypyrimidin-5-yl)-N-ethyl-7-(4-(1-isopropyl-4-(trifluoromethyl)-1H-imidazol-2-yl)benzyl)-7H-pyrrolo[2,3-d]pyrimidine-6-carboxamide] | < 100 | > 5 | –
COc1ncnc(C2CC2)c1-c1ncc2cc(C(=O)N(C)C)n(Cc3ccc(-c4nc(C(F)(F)F)cn4C(C)C)cc3)c2n1 [Example 5, 2-(4-cyclopropyl-6-methoxypyrimidin-5-yl)-7-(4-(1-isopropyl-4-(trifluoromethyl)-1H-imidazol-2-yl)benzyl)-N,N-dimethyl-7H-pyrrolo[2,3-d]pyrimidine-6-carboxamide] | < 100 | > 5 | –
CC[C@@H](C)NC(=O)c1cc2cnc(-c3c(OC)ncnc3C3CC3)nc2n1Cc1ccc(-c2nc(C(F)(F)F)cn2C(C)C)cc1 [Example 92, (R)-N-(sec-butyl)-2-(4-cyclopropyl-6-methoxypyrimidin-5-yl)-7-(4-(1-isopropyl-4-(trifluoromethyl)-1H-imidazol-2-yl)benzyl)-7H-pyrrolo[2,3-d]pyrimidine-6-carboxamide] | < 100 | – | –
COc1ncnc(C2CC2)c1-c1ncc2cc(C(=O)NO)n(Cc3ccc(-c4nc(C(F)(F)F)cn4C(C)C)cc3)c2n1 [Example 120, 2-(4-cyclopropyl-6-methoxypyrimidin-5-yl)-N-hydroxy-7-(4-(1-isopropyl-4-(trifluoromethyl)-1H-imidazol-2-yl)benzyl)-7H-pyrrolo[2,3-d]pyrimidine-6-carboxamide] | – | > 5 | –
COc1ncnc(C2CC2)c1-c1ncc2cc(C(=O)NC[C@H]3CCCN3C)n(Cc3ccc(-c4nc(C(F)(F)F)cn4C(C)C)cc3)c2n1 [Example 136, (R) -2-(4-cyclopropyl-6-methoxypyrimidin-5-yl)-7-(4-(1-isopropyl-4-(trifluoromethyl)-1H-imidazol-2-yl)benzyl)-N-((1-methylpyrrolidin-2-yl)methyl)-7H-pyrrolo[2,3-d]pyrimidine-6-carboxamide] | < 100 | – | –
COc1ncnc(C2CC2)c1-c1ncc2cc(C(N)=O)n(Cc3ccc(-c4nc(C(F)(F)F)cn4C)cc3)c2n1 [Example 148, 2-(4-cyclopropyl-6-methoxypyrimidin-5-yl)-7-(4-(1-methyl-4-(trifluoromethyl)-1H-imidazol-2-yl)benzyl)-7H-pyrrolo[2,3-d]pyrimidine-6-carboxamide] | < 100 | – | –
COc1ncnc(C2CC2)c1-c1ncc2cc(C(=O)NC3CCNCC3)n(Cc3ccc(-c4nc(C(F)(F)F)cn4C(C)C)cc3)c2n1 [Example 159, 2-(4-cyclopropyl-6-methoxypyrimidin-5-yl)-7-(4-(1-isopropyl-4-(trifluoromethyl)-1H-imidazol-2-yl)benzyl)-N-(piperidin-4-yl)-7H-pyrrolo[2,3-d]pyrimidine-6-carboxamide] | 100 to 500 | – | –
COCCN1CC[C@@H](NC(=O)c2cc3cnc(-c4c(OC)ncnc4C4CC4)nc3n2Cc2ccc(-c3nc(C(F)(F)F)cn3C)cc2)[C@@H](F)C1 [Example 160, 2-(4-cyclopropyl-6-methoxypyrimidin-5-yl)-N-((3S,4R)-3-fluoro-1-(2-methoxyethyl)piperidin-4-yl)-7-(4-(1-methyl-4-(trifluoromethyl)-1H-imidazol-2-yl)benzyl)-7H-pyrrolo[2,3-d]pyrimidine-6-carboxamide] | – | > 5 | –
COc1ncnc(C2CC2)c1-c1ncc2cc(C(=O)N3CCCC3)n(Cc3ccc(-c4nc(C(F)(F)F)cn4C)cc3)c2n1 [Example 192, (2-(4-cyclopropyl-6-methoxypyrimid in-5-yl)-7-(4-(1-methyl-4-(trifluoromethyl)-1H-imidazol-2-yl)benzyl)-7H-pyrrolo[2,3-d]pyrimidin-6-yl) (pyrrolidin-1-yl)methanone] | – | > 5 | –
CNC(=O)c1cc2cnc(-c3c(O)ncnc3C3CC3)nc2n1Cc1ccc(-c2nc(C(F)(F)F)cn2C)cc1 [Example 206, 2-(4-cyclopropyl-6-hydroxypyrimidin-5-yl)-N-methyl-7-(4-(1-methyl-4-(trifluoromethyl)-1H-imidazol-2-yl)benzyl)-7H-pyrrolo[2,3-d]pyrimidine-6-carboxamide] | – | < 5 | –
CNC(=O)c1cc2cnc(-c3c(OC)ncnc3C3CC3)nc2n1Cc1ccc(-n2nc(C(F)(F)F)cc2C(=O)O)cc1 [Example 213, 1-(4-((2-(4-cyclopropyl-6-methoxypyrimidin-5-yl)-6-(methylcarbamoyl)-7H-pyrrolo[2,3-d]pyrimidin-7-yl)methyl)phenyl)-3-(trifluoromethyl)-1H-pyrazol-5-carboxylic acid] | – | < 5 | –
CNC(=O)c1cc2cnc(-c3c(OC)ncnc3C3CC3)nc2n1CC12CCC(c3nc(C(F)(F)F)cn3C(C)C)(CC1)CO2 [Example 226, 2-(4-cyclopropyl-6-methoxypyrimidin-5-yl)-7-(((1s,4s)-4-(1-isopropyl-4-(trifluoromethyl)-1H-imidazol-2-yl)-2-oxabicyclo[2.2 .2]octan-1-yl)methyl)-N-methyl-7H-pyrrolo[2,3-d]pyrimidine-6-carboxamide] | – | < 5 | –
